Laboratory results taken from US6015808A, “Synthesis of pharmaceutical compositions with lactams and β-lactams/oxo thia azabicyclo compounds” (priority 1995, dated 2000).
Values after ≈ are worked out from the molar mass of the structure shown. “Also recorded” adds a separate entry of the source. Starred links: 1 amine or outer side, 2 acyl side, 3 side chain; linkers in the order of their positions; H or OH if unused. Positions of bridges follow the written chain, without caps; N, C: chain ends. Non-standard residues stand in square brackets, D forms with d. Residues, ends and D or L forms follow the SMILES beside them. Chains are numbered I, II in the order given. Actinocin(9to1) = Cc1c2oc3c(C)ccc(C(=O)[*:1])c3nc-2c(C(=O)[*:2])c(N)c1=O; NMeV = CN[C@H](C(=O)O)C(C)C; Sar = CNCC(=O)O

Assays:
P. marneffei = experiment: in vitro MIC against P. marneffei, tube double dilution; format: cell-based, Penicillium marneffei; conditions: Talaromyces marneffei, standard tube double dilution, read-out: minimum inhibitory concentration (MIC)
Candida albicans = experiment: survival of mice challenged with Candida albicans; format: in vivo, Swiss albino mice; conditions: for survival rate: 21-day study period, clotrimazole types 7.5 mg/kg, nystatin types 50 mg/kg; for survival rate after extended treatment: treatment extended two more weeks, 28 days post-inoculation
[1] = system: human breast carcinoma MX-1; experiment: MX-1 human breast tumor in nude mice; conditions: intraperitoneal; for effect on MX-1 tumors (in words): 0.5 mg/kg escalating to 5 mg/kg (parents) or 20 mg/kg (JAI-); for deaths / survival of MX-1 mice (in words): 3 animals per group
Method: Nude mice were grafted with transplantable human breast carcinoma MX-1, which was allowed to grow until the tumors were very large. The mice were then treated with clinically compatible dosage schedules of the compounds. All doses were administered intraperitoneally.
A control group (3 animals in the group), grafted with MX-1 tumor, which was allowed to grow to large tumors. Then, the mice were injected with distilled water and their tumors were measured simultaneously with the experimental treated animals.
1. […] The starting dose of mitomycin C was 0.5 mg/kg. escalating up to 5 mg/kg to all mice in the group. […] (3 animals per group).
2. […] The starting dose was 0.5 mg/kg escalating to 20 mg/kg. […] (3 animals per group).
3. […] The starting dose was 0.5 mg/kg escalating to 5 mg/kg. (3 animals per group).
4. […] The starting dose was 0.5 mg/kg escalating to 20mg/kg doses. (3 animals per group).

M. leprae = experiment: in vitro culture of M. leprae, growth inhibition; format: cell-based
[2] = system: Mycobacterium avicum Complex (MAC); conditions: cited from earlier work
oral absorption = format: in vivo
toxicity / LD 50 in mice = conditions: mouse, in vivo
fungi = conditions: cited from earlier work
Bacillus subtilis = conditions: 28° C., 12 hours
Method: All plates were incubated at 10° C. for 30 minutes, and then transferred to an incubator at 28° C. for 12 hours. Zones of inhibition were obtained from each plate, and Rf values were calculated.

bacteria = conditions: cited from earlier work

## Nc1nc(=O)[nH]cc1F [5-FC, 5-fluorocytosine]
P. marneffei
  MIC: 0.195 to 0.78 µg/mL (≈ 1.51 to 6.04 µM)

## Clc1ccccc1C(c1ccccc1)(c1ccccc1)n1ccnc1 [Clotrimazole]
Candida albicans
  survival rate: 62.5%
  survival rate after extended treatment: zero
other
  solubility in water: insoluble in water

## CO[C@@]12[C@H](COC(N)=O)C3=C(C(=O)C(C)=C(N)C3=O)N1C[C@@H]1N[C@@H]12 [Mitomycin C]
[1]; listed as Mitomycin-C
  effect on MX-1 tumors (in words): the tumors regressed
  deaths / survival of MX-1 mice (in words): died
[1]; listed as mitomycin-C
  effect on MX-1 tumors (in words): eliminated the human MX-1 breast tumors
  deaths / survival of MX-1 mice (in words): All animals died in a two month time span; also recorded: all animals in this treatment group died from hepatotoxicity

## NCC[C@H](O)C(=O)N[C@@H]1C[C@H](N)[C@@H](O[C@H]2O[C@H](CN)[C@@H](O)[C@H](O)[C@H]2O)[C@H](O)[C@H]1O[C@H]1O[C@H](CO)[C@@H](O)[C@H](N)[C@H]1O [amikacin]
M. leprae; Mycobacterium leprae, 100 mcg/ml, read-out: growth inhibition against M. leprae
  inhibition at 100 µg/mL: 63%
M. leprae; concentration not given
  M. leprae killed: 63%
M. leprae; in combination with dapsone
  effect of combination with dapsone on M. leprae: did not show any additive effects
[2]
  activity against MAC (earlier studies): high in vitro and in vyvn activity

## C[C@@H]1[C@H](O)[C@@H](C)/C=C/C=C/C=C/C=C/C=C/C=C/C=C/[C@H](O[C@@H]2O[C@H](C)[C@@H](O)[C@H](N)[C@@H]2O)C[C@@H]2O[C@](O)(C[C@@H](O)C[C@@H](O)[C@H](O)CC[C@@H](O)C[C@@H](O)CC(=O)O[C@H]1C)C[C@H](O)[C@H]2C(=O)O [amphotericin B]
P. marneffei
  MIC: 0.195 to 1.56 µg/mL (≈ 0.211 to 1.69 µM)
Oral absorption
  oral absorption: poorly absorbed orally

## Cc1c2oc3c(C)ccc(C(=O)N[C@@H]4C(=O)N[C@H](C(C)C)C(=O)N5CCC[C@H]5C(=O)N(C)CC(=O)N(C)[C@@H](C(C)C)C(=O)O[C@@H]4C)c3nc-2c(C(=O)N[C@@H]2C(=O)N[C@H](C(C)C)C(=O)N3CCC[C@H]3C(=O)N(C)CC(=O)N(C)[C@@H](C(C)C)C(=O)O[C@@H]2C)c(N)c1=O [dactinomycin] (I: T[dV]P[Sar][NMeV] / II: T[dV]P[Sar][NMeV]; ester I:1-I:C, II:1-II:C; linker I:N-II:N via Actinocin(9to1))
Toxicity / LD 50 in mice
  LD50: 0.5 to 5 mg/kg

## CC(=O)N1CCN(c2ccc(OCC3COC(Cn4ccnc4)(c4ccc(Cl)cc4Cl)O3)cc2)CC1 (stereo not drawn) [ketoconazole]
P. marneffei
  MIC: 0.195 to 0.39 µg/mL (≈ 0.367 to 0.734 µM)

## Clc1ccc(COC(Cn2ccnc2)c2ccc(Cl)cc2Cl)c(Cl)c1 (stereo not drawn) [miconazole]
P. marneffei
  MIC: 0.195 µg/mL (≈ 0.469 µM)

## C[C@@H]1[C@H](O)[C@@H](C)/C=C/C=C/CC/C=C/C=C/C=C/C=C/C(O[C@H]2O[C@H](C)[C@@H](O)[C@H](N)[C@@H]2O)CC2O[C@](O)(CC(O)C(O)CCC(O)CC(O)CC(O)CC(=O)O[C@H]1C)CC(O)C2C(=O)O (stereo partly drawn) [nystatin]
Candida albicans
  survival rate: 75%
  survival rate after extended treatment: 75%

## CC1(C)S[C@@H]2[C@H](NC(=O)Cc3ccccc3)C(=O)N2[C@H]1C(=O)O [sodium penicillin G]
fungi
  antifungal activity (stated as known): no antifungal activity
acetone
  solubility in acetone: insoluble in acetone
methanol, alcohols, ethyl acetate, other solvents
  solubility in methanol, alcohol, other solvents: soluble in water, alcohol and some solvents
other
  solubility in water: soluble in water

## bleomycin
[1]
  effect on MX-1 tumors (in words): some initial slowing in tumor growth, but then had no response
[1]; listed as Bleomycin
  effect on MX-1 tumors (in words): some initial slowing of tumor growth, but then there was no response

## hamycin
Bacillus subtilis
  zone of inhibition, B. subtilis seeded plate: no zone spot
bacteria
  antibacterial activity (stated as known): no antibacterial activity
